Laboratory results taken from patent US9504660B2, “Retinaldehyde mimetics and inhibitors of retinaldehyde dehydrogenase I in the treatment of disorders” (THE BRIGHAM AND WOMEN'S HOSPITAL, INC., priority 2012, dated 2016).

Assays:
UCP-1 [1] = assay: UCP-1 expression in fat depots of ASO-treated C57Bl/6J mice; format: in vivo; conditions: chow-fed mice, i.p. 35 mg/kg/dose twice a week for 6 weeks
Method: (§1) Aldh1a1-deficient (Aldh1a1^4″) mice were backcrossed to a C57BL/6J background (>20 generations). Mice were kept on a standard chow diet with a Vitamin A content of 15 IU/g or on high-fat diet (60% kcal fat, Research Diets, New Brunswick, N.J.) as indicated. Mice had free access to food and water except as indicated under Harvard Medical School Institutional Animal Care and Use Committee guidelines. Experiments were conducted using 12-14 week old female mice unless otherwise indicated.
(§2) An ASO targeting murine Aldh1a1 and a control ASO not hybridizing to any known murine RNA sequences were synthesized and purified by Isis Pharmaceuticals Inc. (Carlsbad, Calif.) as described previously^39. In vitro characterization including knockdown validation of the Aldh1a1 ASO was done in murine primary hepatocytes. ASOs (70 mg/kg/wk) were administered via intraperitoneal (i.p.) injection twice weekly.
(§3) Total RNA was extracted (RNeasy, Qiagen, Hi[den, Germany), DNase-treated (Qiagen), and reverse-transcribed to cDNA. Gene expression, normalized to 36B4, was analyzed by quantitative real-time RT-PCR (Sybr Green, 96 well plates) using a MyiQ cycler (Bio-Rad, Hercules, Calif.). […]
Homogenized tissue was lysed in RIPA buffer (Boston Bioproducts, Ashland, Mass.) containing protease and phosphatase inhibitors. […] Proteins were detected by chemiluminescence (GE HealthCare Amersham, Amersham, UK).

[2] = Established diet-induced obesity in high-fat diet fed C57Bl/6J mice, body weight and fat depot mass; format: in vivo; conditions: HFD 8 weeks before treatment, continued HFD additional 9 weeks, compared to control ASO
Method: as §1, §2

Aldh1a1 = Aldh1a1 expression in tissues of ASO-treated C57Bl/6J mice; format: in vivo
Method: as §1, §2
(§4) Total RNA was extracted (RNeasy, Qiagen, Hi[den, Germany), DNase-treated (Qiagen), and reverse-transcribed to cDNA. Gene expression, normalized to 36B4, was analyzed by quantitative real-time RT-PCR (Sybr Green, 96 well plates) using a MyiQ cycler (Bio-Rad, Hercules, Calif.). Primer sequences are available upon request.
Homogenized tissue was lysed in RIPA buffer (Boston Bioproducts, Ashland, Mass.) containing protease and phosphatase inhibitors. Standard Western blotting was performed using rabbit polyclonal antibody against UCP-1, rabbit monoclonal antibody against Aldh1a1 (both Abcam, Cambridge, UK), GAPDH and f3-Tubulin (both Santa Cruz Biotechnology). Proteins were detected by chemiluminescence (GE HealthCare Amersham, Amersham, UK).

[3] = Core body temperature under ambient and cold-induced conditions in ASO-treated mice; format: in vivo; conditions: versus Ctrl ASO-treated mice
Method: as §2
Core body temperature was assessed in mice as before^49,41. WT and Aldh1a1^−/− mice (12 week old, n=6/group) were anesthetized (Ketamine/Xylazine/Acepromazine, 100/10/3 mg/kg i.p.) and a telemetric temperature probe (E-mitter, MiniMitter, Bend, Oreg.) was implanted intra-abdominally. One week after surgery, mice were single-housed in open-circuit Oxymax chambers as part of the Comprehensive Lab Animal Monitoring System (CLAMS; Columbus Instruments, Columbus, Ohio)^42. Oxymax chambers were kept in a temperature enclosure with 12 h light/dark cycles at 23° C. and mice had ad-libitum access to food and water. After a 48 h acclimatization phase, core body temperature was recorded every 10 min for 48 h at ambient temperature (23° C.), followed by 48 h cold stimulation (4° C.). After sacrifice, fat depots were dissected and analyzed.

[4] = Glucose and insulin tolerance tests in high-fat diet fed obese mice; format: in vivo; conditions: HFD obese mice, compared to control ASO
Method: as §2
Glucose (GTT) and insulin tolerance tests (ITT) were performed on mice after fasting (12 h and 6 h, respectively). Mice were injected i.p. either with D-glucose (Sigma, 0.75 g/kg body weight) or recombinant human regular insulin (0.5 U/kg body weight, Humulin R, Eli Lilly, Indianapolis, Ind.); blood glucose concentrations were measured periodically up to 120 min by glucometer (Abbott Laboratories, Abbott Park, Ill.).

UCP-1 [5] = assay: UCP-1 gene expression in 10T1/2 cells during adipogenic differentiation; format: cell-based, murine; conditions: for effect on Rald-mediated UCP-1 expression: antagonist with Rald
Method: (§5) C3H10T1/2, isolated human stromal-vascular cells and Aldh1a1^−/− MEFs were cultured and differentiated as previously described^8. Briefly, cells were grown to confluence in DMEM, 10% fetal bovine serum (FBS) and 1% penicillin/streptomycin followed by standard adipogenic induction (20 nM insulin, 1 nM T3, 0.5 mM isobutylmethylxanthine, […], 0.125 mM indomethacin) and stimulation with retinoids, retinoid antagonists or vehicle (DMSO) as indicated. After a 48 h induction phase, growth media was supplemented with insulin, T3, and indicated retinoids which were changed every other day up to day 6.
as §4

RAR = conditions: ligand displacement assays, reference 37; cited from earlier work
UCP-1 promoter = UCP-1 promoter luciferase reporter in undifferentiated 10T1/2 cells; format: cell-based, murine; conditions: 24 h, increasing concentrations / 1 pM
Method: (§6) Cell lysates were harvested 48 h post transfection and luciferase activity quantified by standard luminometer assay and normalized to 3-galactosidase.

RXR = assay: 9cisRA-induced Cyp26a1 expression in 10T1/2 cells; format: cell-based, murine; conditions: data not shown
Method: as §5, §4

UCP-1 [6] = assay: UCP-1 gene expression in Aldh1a1-/- mouse embryonic fibroblast (MEF)-derived adipocytes; format: cell-based; conditions: stimulation 24 h, versus vehicle-treated cells
Method: (§7) Abdominal subcutaneous fat biopsies were obtained from a subject undergoing gastric bypass surgery who gave written informed consent. Fat biopsies were immediately washed with phosphate buffered saline (PBS), minced, and digested (1 mg/mi collagenase, 45 min, 37° C.) in DMEM containing 1% BSA. Digested tissues were filtered through sterile 150 µm nylon mesh and centrifuged (250 g, 5 min). The floating fractions containing adipocytes were discarded and they stromal-vascular fraction pellet was resuspended in erythrocyte lysis buffer (154 mM NH4CI, 10 mM KHCO3, 0.1 mM EDTA, 10 min) to remove red blood cells. The cells were further centrifuged at 500 g for 5 min, plated on a 24-well culture dish and grown, and differentiated to mature adipocytes as described below. MEFs were isolated from Aldh1a1^−/− embryos at embryonic day 14.5 using standard tech niques^43.
(§8) C3H10T1/2, isolated human stromal-vascular cells and Aldh1a1^−/− MEFs were cultured and differentiated as previously described^8. […]
as §3

UCP-1 [7] = assay: UCP-1 mRNA in shAldh1a1-transfected 10T1/2 cells; format: cell-based, murine; conditions: Rald stimulation (1 pM) in shAldh1a1-treated 10T1/2 cells
Method: as §5
Mission® shRNA constructs targeting Aldh1a1 and a non-targeting control shRNA were purchased from Sigma. To generate lentivirus particles, shRNA constructs were transfected into HEK293TN cells (SA Biosciences, Frederick, Md.) along with the packaging vectors psPAX and pM2DG. After 72 h, virus-containing supernatant was precipitated using polyethylene glycol (SA Biosciences) and concentrated in PBS (30×). […]
as §3

UCP-1 [8] = assay: UCP-1 expression in differentiating human stromal-vascular cells from subcutaneous fat biopsies; format: cell-based; conditions: 1 pM during differentiation
Method: as §7, §8, §3

[9] = target: T1, RARa ligand binding domain (LBD) (Homo sapiens, UniProt P10276); assay: Cell-free TR-FRET assay, PGC-1a recruitment to RARa LBD; format: biochemical
T1 construct: purchased Invitrogen
T1 sequence (P10276 183-417 limits assumed): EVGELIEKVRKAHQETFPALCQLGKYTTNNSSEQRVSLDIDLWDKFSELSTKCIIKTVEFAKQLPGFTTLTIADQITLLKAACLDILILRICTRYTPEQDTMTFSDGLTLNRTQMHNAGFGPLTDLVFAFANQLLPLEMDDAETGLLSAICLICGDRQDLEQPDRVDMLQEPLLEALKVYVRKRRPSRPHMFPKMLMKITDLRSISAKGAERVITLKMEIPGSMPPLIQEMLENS
Method: Lanthascreen” TR-FRET RARa and RXR13 coactivator assays (Invitrogen) were performed as per manufacturer protocol using a PerkinElmer (Waltham, Mass.) EnVision™ fluorescence plate reader.

[10] = test system: retinoic acid response element (RARE) luciferase reporter; assay: RARE luciferase reporter in undifferentiated 10T1/2 cells; format: cell-based, murine; conditions: 24 h, concentration-dependent
Method: as §6

3T3-L1 cells = conditions: reference 16; cited from earlier work
UCP-1 promoter region = assay: Chromatin immunoprecipitation (ChIP) at the UCP-1 promoter region in 10T1/2 cells; format: cell-based, mouse
Method: ChIP was performed in Rald versus vehicle stimulated C3H10T1/2 adipocytes using EZ-Magna ChIP™ kit following manufacturer's instructions (Millipore, Billerica, Mass.) and RARa, PGC-1a, or rabbit lgG antibodies as a negative control (all Santa Cruz). lmmunoprecipitated DNA was amplified by real-time PCR using primers specific for the mouse UCP-1 promoter region. Relative PGC-la and RARa occupancy at the UCP-1 promoter was determined normalized to input DNA

[11] = test system: RXRa ligand binding domain (LBD); assay: Cell-free TR-FRET assay, PGC-1a recruitment to RXRa LBD; format: biochemical
[12] = chow-fed mice, i.p. 35 mg/kg/dose twice a week for 6 weeks, compared to Ctrl ASO
[13] = each 1 pM, differentiating 10T1/2 cells
[14] = 1 pM during adipogenic differentiation

## Aldh1a1 ASO: ASO targeting murine Aldh1a1, synthesized by Isis Pharmaceuticals; sequence AACACGACTATGCTGGTTAC (SEQ ID NO: 01) (listed as DNA, chemistry not given here)
UCP-1 [1]
  UCP-1 expression in GWAT: significantly increased
  UCP-1 expression in SWAT or BAT (significant increase): not
[2]
  GWAT mass: decreased
  weight gain in obese mice: significantly limited
Aldh1a1; administered systemically
  Aldh1a1 expression in subcutaneous WAT: no effect
  Aldh1a1 expression in visceral WAT: decrease
Aldh1a1; [12]
  Aldh1a1 expression in SWAT, BAT, spleen, intestine, and skeletal muscle: remained unchanged
  Aldh1a1 mRNA and protein levels in liver and GWAT: significantly decreased
[3]; 4° C., 48 h
  core body temperature on cold exposure: protected significantly
[3]; 23° C.
  core body temperature at ambient temperature: did not differ
[4]
  glucose tolerance: improved
  insulin tolerance: improved

## Cc1ccc(C2=CCC(C)(C)c3ccc(C#Cc4ccc(C(=O)O)cc4)cc32)cc1 [AGN193109, reference compound]
UCP-1 [5]; [13]
  effect on Rald-mediated UCP-1 expression: completely inhibited

## CC1=C(/C=C/C(C)=C/C=C/C(C)=C/CO)C(C)(C)CCC1 [retinol]
RAR
  binding to RAR: can bind
UCP-1 promoter
  UCP-1 promoter luciferase activity: not and failed to induce

## CN1c2ccc([N+](=O)[O-])cc2N=C(c2ccc(C(=O)O)cc2)c2cc3c(cc21)C(C)(C)CCC3(C)C [HX531, reference compound]
RXR
  9cisRA-induced expression of the RA target gene Cyp26a1: significantly inhibit
UCP-1 [5]; [13]
  effect on Rald-mediated UCP-1 expression: did not alter

## CC1=C(/C=C/C(C)=C/C=C/C(C)=C/C=O)C(C)(C)CCC1 [Rald, all trans-Retinal]
RAR
  binding to RAR: can bind
UCP-1 [6]
  UCP-1 gene expression increase: 40 fold
UCP-1 promoter
  UCP-1 promoter luciferase activity: increased
UCP-1 [7]
  UCP-1 mRNA expression increase: 100 fold
UCP-1 [8]
  UCP-1 expression: significantly increased
[9]
  EC50: 82 nM
  PGC-1a recruitment to RARa: effectively recruited
[10]
  activity of a canonical RARE luciferase reporter: significantly increased
3T3-L1 cells
  adipogenesis in 3T3-L1 cells: inhibitor
UCP-1 promoter region; Rald 1 pM during adipocyte differentiation
  PGC-1a occupancy at the UCP-1 promoter region, enrichment: 5 fold
UCP-1 promoter region; after stimulation, versus basal conditions
  RARa signal at the UCP-1 promoter: did not increase further
[11]
  PGC-1a recruitment to RXRa: virtually no effect
UCP-1 [5]; [14]
  expression of other BAT markers including PGC-16, PRDM16, and Cidea: induced
  expression of the adipogenic gene aP2: remained unaltered
UCP-1 [5]; 1 pM during adipogenic differentiation of 10T1/2 cells (white adipocytes)
  UCP-1 expression induction: 100 fold
UCP-1 [5]; co-stimulation with the Aldh inhibitor DEAB, each 1 pM, differentiating 10T1/2 cells
  UCP-1 expression: to the same extent as Rald alone

## CC1=C(/C=C/C(C)=C/C=C/C(C)=C/C(=O)O)C(C)(C)CCC1 [ATRA, all-trans RA, reference compound]
[10]
  activity of a canonical RARE luciferase reporter: significantly increased

## CC1=C(/C=C/C(C)=C\C=C\C(C)=C\C(=O)O)C(C)(C)CCC1 [9cisRA, reference compound]
[11]
  PGC-1a recruitment to RXRa: potently recruited
